The target of the test is T1, human RXFP1 (Homo sapiens, UniProt Q9HBX9).
T1 construct: expressed in transfected cells
T1 sequence (Q9HBX9 1-757): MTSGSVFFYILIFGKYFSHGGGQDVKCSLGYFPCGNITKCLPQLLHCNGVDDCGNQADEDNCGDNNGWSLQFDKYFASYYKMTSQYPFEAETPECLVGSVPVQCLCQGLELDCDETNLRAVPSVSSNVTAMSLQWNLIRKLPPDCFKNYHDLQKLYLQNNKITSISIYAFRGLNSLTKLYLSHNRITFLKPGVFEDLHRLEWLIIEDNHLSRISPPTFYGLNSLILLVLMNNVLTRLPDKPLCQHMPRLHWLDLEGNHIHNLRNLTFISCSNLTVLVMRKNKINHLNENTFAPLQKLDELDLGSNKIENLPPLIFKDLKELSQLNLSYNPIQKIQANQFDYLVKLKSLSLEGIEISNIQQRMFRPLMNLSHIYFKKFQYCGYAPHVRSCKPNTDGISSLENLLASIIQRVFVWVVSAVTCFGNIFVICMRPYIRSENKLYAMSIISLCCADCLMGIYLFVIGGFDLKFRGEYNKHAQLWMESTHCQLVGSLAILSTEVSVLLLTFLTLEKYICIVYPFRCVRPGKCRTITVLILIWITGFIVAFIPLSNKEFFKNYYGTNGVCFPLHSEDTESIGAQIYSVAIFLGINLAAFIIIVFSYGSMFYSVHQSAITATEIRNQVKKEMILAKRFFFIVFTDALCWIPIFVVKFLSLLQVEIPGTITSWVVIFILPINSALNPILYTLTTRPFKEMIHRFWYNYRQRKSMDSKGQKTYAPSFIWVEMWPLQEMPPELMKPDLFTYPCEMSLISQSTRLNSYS
As to the kind of experiment: RXFP1 cyclic adenosine monophosphate (cAMP) assay, hRXFP1 HEK293. In kind it is cell-based. The note with it: HEK293 cells stably expressing human RXFP1; 30 min at room temperature; HTRF cAMP. Put shortly: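 HEK293 cells stably expressing human RXFP1 were exposed to compounds (0.010 nM–50 μM, 2% DMSO) for 30 min at room temperature in HBSS/HEPES buffer with 0.5 mM IBMX. Intracellular cAMP was measured by HTRF against a cAMP standard curve; EC50 from 4-parameter logistic fit.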
(Time-resolved FRET reads energy transfer from a long-lived donor to a nearby acceptor.)
Broadly, the EC50 is the concentration needed to bring the measured effect to its halfway point. Low values mean a more potent agent, high ones a less potent agent. `COc1ccc(-c2cc(S(=O)(=O)NC(C)(C)C)ccc2F)cc1C(=O)Nc1cc2c(cc1C(=O)Nc1ccc(F)c(C(F)(F)F)c1)OC(F)(F)O2` [Example 64, 6-(5′-(N-(tert-butyl)sulfamoyl)-2′-fluoro-4-methoxy-{1,1′-biphenyl]-3-carboxamido)-2,2-difluoro-N-(4-fluoro-3-(trifluoromethyl)phenyl) benzo[d][1,3]dioxole-5-carboxamide] came in with a half-maximal effective concentration (EC50) of 37 nM.
Turning to `COc1ccc(C2=NOC3C4CCC(C4)C23)cc1C(=O)Nc1cc2nc(C)sc2cc1C(=O)Nc1ccc(F)c(C(F)(F)F)c1` (stereo not drawn) [Example 10, N-(4-fluoro-3-(trifluorometh-yl)phenyl)-5-(5-(3a,4,5,6,7,7a-hexahydro-4,7-methano-benzo[d]isox-azol-3-yl)-2-methoxybenz-amido)-2-methylbenzo [d]thiazole-6-carboxamide], the response was half-maximal at 130 nM (EC50).
As to `COc1ccc(-c2cnc3n2CCN(CC(N)=O)C3)cc1C(=O)Nc1cc2c(cc1C(=O)Nc1ccc(F)c(C(F)(F)F)c1)OC(F)(F)O2` [Example 82, 6-(5-(7-(2-amino-2-oxoethyl)-5,6,7,8-tetrahydroimidazo[1,2-a]pyrazin-3-yl)-2-methoxybenzamido)-2,2-difluoro-N-(4-fluoro-3-(trifluoromethyl)phenyl) benzo[d][1,3]dioxole-5-carboxamide], the EC50 came to 144 nM.
To `COc1ccc(-c2cc(C(=O)Nc3cc[nH]n3)ccc2F)cc1C(=O)Nc1cc2c(cc1C(=O)Nc1ccc(F)c(C(F)(F)F)c1)OC(F)(F)O2` [Example 48] belongs 196 nM; to `COc1ccc(C(=O)N2CC(C)(O)C2)cc1C(=O)Nc1cc2c(cc1C(=O)Nc1ccc(F)c(C(F)(F)F)c1)OC(F)(F)O2` [Example 39, 2,2-difluoro-N-(4-fluoro-3-(trifluoromethyl)phenyl)-6-(5-(3-hydroxy-3-methylazetidine-1-carbonyl)-2-methoxybenzamido) benzo[d][1,3]dioxole-5-carboxamide], 90 nM.
Consider `COc1ccc(C2=NOC3CN(C(=O)CO)CC23)cc1C(=O)Nc1cc2c(cc1C(=O)Nc1ccc(F)c(C(F)(F)F)c1)OC(F)(F)O2` (stereo not drawn) [Example 44, 2,2-difluoro-N-(4-fluoro-3-(trifluoromethyl)phenyl)-6-(5-(5-(2-hydroxyacetyl)-3a,5,6,6a-tetrahydro-4H-pyrrolo[3,4-d]isoxazol-3-yl)-2-methoxybenzamido)benzo[d][1,3]dioxole-5-carboxamide], for which the midpoint of the response, the EC50, lay at 16 nM.
Compound `COc1ccc(C2=NOC3CS(=O)(=O)CC23)cc1C(=O)Nc1cc2nc(C)sc2cc1C(=O)Nc1ccc(F)c(C(F)(F)F)c1` (stereo not drawn) [Example 6, 5-(5-(5,5-diox-ido-3a,4,6,6a-tetrahydro-thieno[3,4-d]isoxazol-3-yl)-2-methoxy-benzamido)-N-(4-fluoro-3-(trifluorometh-yl)phenyl)-2-methylbenzo [d]thiazole-6-carboxamide] had an EC50 of 28 nM.
For `COc1ccc(C2=NOC3CC(CO)CC23)cc1C(=O)Nc1cc2c(cc1C(=O)Nc1ccc(F)c(C(F)(F)F)c1)OC(F)(F)O2` (stereo not drawn) [Example 98], the EC50 worked out at 1.3 nM.
Consider `COc1ccc(C2=NOC3(CCN(CC(N)=O)CC3)C2)cc1C(=O)Nc1cc2c(cc1C(=O)Nc1ccc(F)c(C(F)(F)F)c1)OC(F)(F)O2` [Example 69, 6-(5-(8-(2-amino-2-oxoethyl)-1-oxa-2,8-diazaspiro[4.5]dec-2-en-3-yl)-2-methoxybenzamido)-2,2-difluoro-N-(4-fluoro-3-(trifluoromethyl)phenyl) benzo[d][1,3]dioxole-5-carboxamide], for which the half-maximal effective concentration (EC50) came to 42 nM.
`COc1ccc(C#CC(C)(C)O)cc1C(=O)Nc1cc2c(C)noc2cc1C(=O)Nc1ccc(F)c(C(F)(F)F)c1` [Example 34, N-(4-fluoro-3-(trifluoromethyl)phenyl)-5-(5-(3-hydroxy-3-methylbut-1-yn-1-yl)-2-methoxybenzamido)-methylbenzo[d]isoxazole-6-carboxamide] displayed a concentration for a half-maximal effect (EC50) of 1340 nM.
`COc1ccc(C2=NOC(C(C)(C)O)C2)cc1C(=O)Nc1cc2c(cc1C(=O)Nc1ccc(F)c(C(F)(F)F)c1)OC(F)(F)O2` (single isomer, unassigned) [Example 77, 2,2-difluoro-N-(4-fluoro-3-(trifluoromethyl)phenyl)-6-(5-(5-(2-hydroxypropan-2-yl)-4,5-dihydroisoxazol-3-yl)-2-methoxybenzamido) benzo[d][1,3]dioxole-5-carboxamide] displayed an EC50 of 487 nM.
Compound `COc1ccc(C2=NOC3CN(C(=O)CO)CC23)cc1C(=O)Nc1cc2nc(C)sc2cc1C(=O)Nc1ccc(F)c(C(F)(F)F)c1` (stereo not drawn) [Example 5, N-(4-fluoro-3-(trifluorometh-yl)phenyl)-5-(5-(5-(2-hy-droxyacetyl)-3a,5,6,6a-tetra-hydro-4H-pyr-rolo[3,4-d]isoxazol-3-yl)-2-methoxy-benzamido)-2-methylbenzo [d]thiazole-6-carboxamide] gave an EC50 of 16 nM.
For `COc1ccc(C2=NOC3CC(O)CC23)cc1C(=O)Nc1cc2nc(C)sc2cc1C(=O)Nc1ccc(F)c(C(F)(F)F)c1` (single isomer, unassigned) [Example 27, N-(4-fluoro-3-(trifluorometh-yl)phenyl)-5-(5-(5-hydroxy-3a,5,6,6a-tetra-hydro-4H-cyclopenta[d]isoxazol-3-yl)-2-methoxy-benzamido)-2-methylbenzo [d]thiazole-6-carboxamide], the concentration giving a half-maximal response (EC50) turned out to be 2200 nM.
Take `COc1ccc(C2CCCN(CC(N)=O)CC2)cc1C(=O)Nc1cc2c(cc1C(=O)Nc1ccc(F)c(C(F)(F)F)c1)OC(F)(F)O2` (stereo not drawn) [Example 96, 6-(5-(1-(2-amino-2-oxoethyl)azepan-4-yl)-2-methoxybenzamido)-2,2-difluoro-N-(4-fluoro-3-(trifluoromethyl)phenyl) benzo[d][1,3]dioxole-5-carboxamide]: the concentration giving a half-maximal response (EC50) was 339 nM.
The compound `COc1ccc(-c2cc(C(=O)O)ccc2F)cc1C(=O)Nc1cc2c(C)noc2cc1C(=O)Nc1ccc(F)c(C(F)(F)F)c1` [Example 31, 6-fluoro-3′-((6-((4-fluoro-3-(trifluoromethyl)phenyl)carbamoyl)-3-methylbenzo[d]isoxazol-5-yl)carbamoyl)-4′-methoxy-[1,1′-biphenyl]-3-carboxylic acid] returned a 50% effective concentration (EC50) of 116 nM.
Regarding `COc1ccc(-c2noc(C(C)(C)O)n2)cc1C(=O)Nc1cc2c(cc1C(=O)Nc1ccc(F)c(C(F)(F)F)c1)OC(F)(F)O2` [Example 84, 2,2-difluoro-N-(4-fluoro-3-(trifluoromethyl)phenyl)-6-(5-(5-(2-hydroxypropan-2-yl)-1,2,4-oxadiazol-3-yl)-2-methoxybenzamido) benzo[d][1,3]dioxole-5-carboxamide], it took 485 nM to reach a half-maximal effect (EC50).
Regarding `COc1ccc(C2=NOC3COCC23)cc1C(=O)Nc1cc2nc(C)sc2cc1C(=O)NC1CCCC1` (stereo not drawn) [Example 29, N-cyclopentyl-5-(2-methoxy-5-(3a,4,6,6a-tetrahydrofuro [3,4-d]isox-azol-3-yl)-benzamido)-2-methylbenzo [d]thiazole-6-carboxamide], the EC50 came to 2700 nM.
In turn, `COCCOC1(C2CC(c3ccc(OC)c(C(=O)Nc4cc5nc(C)sc5cc4C(=O)Nc4ccc(F)c(C(F)(F)F)c4)c3)=NO2)CC1` (stereo not drawn) [Example 12, N-(4-fluoro-3-(trifluorometh-yl)phenyl)-5-(2-methoxy-5-(5-(1-(2-meth-oxyethoxy)-cyclopropyl)-4,5-dihydro-isoxazol-3-yl)-benzamido)-2-methylbenzo [d]thiazole-6-carboxamide] gave an EC50 of 290 nM.
Regarding `COc1ccc(-c2cnc3n2CCN(CCO)C3)cc1C(=O)Nc1cc2c(cc1C(=O)Nc1ccc(F)c(C(F)(F)F)c1)OC(F)(F)O2` [Example 80, 2,2-difluoro-N-(4-fluoro-3-(trifluoromethyl)phenyl)-6-(5-(7-(2-hydroxyethyl)-5,6,7,8-tetrahydroimidazo[1,2-a]pyrazin-3-yl)-2-methoxybenzamido) benzo[d][1,3]dioxole-5-carboxamide], the EC50 was determined as 260 nM.
In turn, `COc1ccc(-c2cc([C@H](C)O)on2)cc1C(=O)Nc1cc2c(cc1C(=O)Nc1ccc(F)c(C(F)(F)F)c1)OC(F)(F)O2` [Example 73, (S)-2,2-difluoro-N-(4-fluoro-3-(trifluoromethyl)phenyl)-6-(5-(5-(1-hydroxyethyl)isoxazol-3-yl)-2-methoxybenzamido) benzo[d][1,3]dioxole-5-carboxamide] gave an EC50 of 96 nM.
For `COc1ccc(C#CCO)cc1C(=O)Nc1cc2c(cc1C(=O)Nc1ccc(F)c(C(F)(F)F)c1)OC(F)(F)O2` [Example 59, 2,2-difluoro-N-(4-fluoro-3-(trifluoromethyl)phenyl)-6-(5-(3-hydroxyprop-1-yn-1-yl)-2-methoxybenzamido) benzo[d][1,3]dioxole-5-carboxamide], the EC50 was found to be 41 nM.

Source of the values: patent US20250066344A1 (BRISTOL-MYERS SQUIBB COMPANY, priority 2021, published 2025).
